Assay results from patent US4394382A, “Dihydrobenzopyran compounds and pharmaceutical composition comprising said compounds” (Kowa Company, Ltd., priority 1980, dated 1983).
Counter-ions that a name gives are not always drawn.

Columns and labels:
[1] = urine and electrolyte excretion, oral water load method; assay type: in vivo; settings: rat, over 5 hours; for Amount of urine: average ± standard deviation
Experimental: Using rats, five per group, the amount of urine and the amount of electrolytes (sodium, potassium) excreted were measured over 5 hours after oral administration of each of the drugs by an oral water load method. Each of the test drugs was suspended in a 0.5% carboxymethyl cellulose solution and orally administered. Each of the numerical values given in the table is an average value ± standard deviation.

[2] = molecular target: T1, isoproterenol, atrium dextrum and atrium sinistrum (Cavia porcellus, UniProt H0W3H1); assay: isolated atrium cordis samples, antagonistic action on isoproterenol (Magnus method); settings: guinea pig atrium, vs isoproterenol; reciprocal logarithm of molar concentration
T1 construct: Using the atrium dextrum and atrium sinistrum of a guinea pig; from tissue; host or cells: guinea pig right and left atria
Experimental: (§1) Each of the test drugs was used in a concentration of 10^-9 to 4×10^-4 mole/1000 ml (M).
(1) Isolated atrium cordis samples
Using the atrium dextrum and atrium sinistrum of a guinea pig, the contractile force and rhythem were recorded, and the antagonistic action of the test drugs on isoproterenol was examined.

[3] = test system: potassium contracture, mesenteric artery; assay: isolated mesenteric artery, antagonistic action on potassium contracture (Magnus method); settings: dog mesenteric artery, 50% inhibition of maximum reaction, reciprocal logarithm of molar concentration
Experimental: (§2) The activities of the compounds Ia and Ib on various isolated smooth muscles were examined by the Magnus method. Each of the test drugs was used in a concentration of 10^-9 to 4×10^-4 mole/1000 ml (M).
(§3) (6) Isolated mesenteric artery
(§4) Using an isolated mesenteric artery of a dog, the antagonistic action of the test drugs on (a) potassium contracture and (b) norepinephirine was examined.

[4] = test system: various isolated smooth muscles; assay: activities on various isolated smooth muscles, overall (Magnus method)
Experimental: as §2

isoproterenol, bronchus = molecular target: T2, isoproterenol, bronchus (Cavia porcellus, UniProt Q8K4Z4); assay: isolated bronchus sample, antagonistic action on isoproterenol (Magnus method); settings: guinea pig bronchus, vs isoproterenol, reciprocal logarithm of molar concentration
T2 construct: Using the bronchus of a guinea pig; from tissue; host or cells: guinea pig bronchus
Experimental: as §1
(2) Isolated bronchus sample
Using the bronchus of a guinea pig, the antagonistic action of the test drugs on isoproterenol was examined.

[5] = test system: potassium contracture, left circumflex branch (coronary artery); assay: isolated coronary artery, action on potassium contracture (Magnus method); settings: dog coronary artery, 50% inhibition of maximum reaction, reciprocal logarithm of molar concentration
Experimental: Each of the test drugs was used in a concentration of 10^-9 to 4×10^-4 mole/1000 ml (M). (3) Isolated coronary artery Using the left circumflex branch of a dog, the action of the test drugs on potassium contracture was examined.

[6] = test system: Femoral blood flow (femoral artery); assay: femoral blood flow in anesthetized dogs; assay type: in vivo, dog; settings: 1 to 300 μg/kg, *: an increase of about 10% as low doses, and a decrease of about 20% at high doses
Experimental: Adult dogs were anesthetized with 30 mg/kg of pentobarbital administered intravenously and ventilated artificially. The effect of the compounds Ia and Ib on hemodynamic parameters was investigated. Drugs were used dissolved in 0.1 N hydrochloric acid and administered over the 1 to 300 μg/kg dose range.
Measured with an electromagnetic flowmeter probe placed on the femoral artery.

[7] = test system: norepinephirine, mesenteric artery; assay: isolated mesenteric artery, antagonistic action on norepinephrine (Magnus method); settings: dog mesenteric artery, vs norepinephrine; reciprocal logarithm of molar concentration
Experimental: as §2, §3, §4

[8] = test system: potassium contracture, saphenous vein; assay: isolated saphenous vein, action on potassium contracture (Magnus method); settings: dog saphenous vein, 50% inhibition of maximum reaction, reciprocal logarithm of molar concentration
Experimental: as §2
(5) Isolated saphenous vein
Using an isolated saphenous vein of a dog, the action of the test drugs on potassium contracture was examined.

[9] = test system: potassium contracture, portal vein; assay: isolated portal vein, action on potassium contracture (Magnus method); settings: dog portal vein, 50% inhibition of maximum reaction, reciprocal logarithm of molar concentration
Experimental: as §2
Using an isolated portal vein of a dog, the action of the test drugs on potassium contracture was examined.

[10] = 30 mg/kg, controls 22.5 ± 1.4 and (second set) 19.4 ± 4.0
[11] = 30 mg/kg, controls 0.18 ± 0.04 and (second set) 0.21 ± 0.08
[12] = 30 mg/kg, controls 0.53 ± 0.15 and (second set) 0.55 ± 0.14
[13] = 30 mg/kg, controls 3.08 ± 0.27 and (second set) 2.76 ± 0.83

T1 sequence (H0W3H1 1-470): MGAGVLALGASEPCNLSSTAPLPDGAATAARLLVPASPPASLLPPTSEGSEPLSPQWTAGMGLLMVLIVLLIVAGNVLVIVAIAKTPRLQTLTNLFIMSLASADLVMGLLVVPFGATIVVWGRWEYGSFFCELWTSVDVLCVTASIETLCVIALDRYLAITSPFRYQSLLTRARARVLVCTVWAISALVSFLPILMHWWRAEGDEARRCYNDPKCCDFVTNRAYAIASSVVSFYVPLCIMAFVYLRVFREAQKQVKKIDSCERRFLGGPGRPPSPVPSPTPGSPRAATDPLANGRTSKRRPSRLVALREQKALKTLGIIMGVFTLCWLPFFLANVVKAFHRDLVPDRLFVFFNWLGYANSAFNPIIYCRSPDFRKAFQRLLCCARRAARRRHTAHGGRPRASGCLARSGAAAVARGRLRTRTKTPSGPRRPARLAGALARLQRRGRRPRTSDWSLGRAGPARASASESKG
T2 sequence (Q8K4Z4 whole entry): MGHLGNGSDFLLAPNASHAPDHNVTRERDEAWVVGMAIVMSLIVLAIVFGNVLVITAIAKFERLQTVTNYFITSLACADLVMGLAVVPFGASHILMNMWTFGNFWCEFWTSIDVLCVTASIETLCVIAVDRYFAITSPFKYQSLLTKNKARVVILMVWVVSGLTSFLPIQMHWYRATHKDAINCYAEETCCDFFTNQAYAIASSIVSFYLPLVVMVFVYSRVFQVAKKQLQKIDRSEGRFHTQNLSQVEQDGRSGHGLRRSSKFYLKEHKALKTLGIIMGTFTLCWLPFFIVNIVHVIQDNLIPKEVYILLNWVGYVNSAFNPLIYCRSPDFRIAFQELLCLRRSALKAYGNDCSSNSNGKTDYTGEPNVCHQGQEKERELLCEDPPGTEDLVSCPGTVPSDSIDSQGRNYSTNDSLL

Row | Compound | Amount of urine [1, 10] [mL/kg] | K/Na [1, 11] | K excreted [1, 12] [mEq/kg] | Na excreted [1, 13] [mEq/kg] | (1) pA2 [2] | (6) (a) pD'2 [3] | (3) pD'2 [5] | (8) Femoral blood flow* [6] | (6) (b) pA2 [7] | (5) pD'2 [8] | (4) pD'2 [9] | also measured
1 | CC(C)NCC(O)COc1cccc2ccccc12 (centres unmarked) [Comparative drug I, propranolol hydrochloride, reference compound] | 27.8 ± 3.7 | 0.21 ± 0.04 | 0.70 ± 0.11 | 3.42 ± 0.28 | – | – | – | – | – | – | – | –
2 | NS(=O)(=O)c1cc2c(cc1Cl)NC(C(Cl)Cl)NS2(=O)=O (centres unmarked) [Comparative drug II, trichlormethiazide, reference compound] | 34.8 ± 1.7 | 0.21 ± 0.04 | 1.12 ± 0.18 | 5.36 ± 0.42 | – | – | – | – | – | – | – | –
3 | CC(C)NCC(O)COc1cccc2c1OCC(O[N+](=O)[O-])C2 (centres unmarked) [Compound Ia, 3,4-dihydro-8-[(2-hydroxy-3-isopropylamino)propoxy]-3-nitrato-2H-benzopyran] | 31.1 ± 3.2 | 0.20 ± 0.05 | 0.91 ± 0.23 | 4.18 ± 0.56 | 9.1 | 5.2-5.3 | 6.2-6.3 | +~- | 7.0-7.1 | 5.8-6.0 | 6.3-6.4 | β- and α-blocking activities [4]: strong β- and α-blocking activities; (2) pA2 (isoproterenol, bronchus): 9.1-9.2; Amount of urine ([1]; 10 mg/kg, control 22.5 ± 1.4): 24.2 ± 2.2 mL/kg; K excreted ([1]; 10 mg/kg, control 0.53 ± 0.15): 0.61 ± 0.20 mEq/kg; Na excreted ([1]; 10 mg/kg, control 3.08 ± 0.27): 3.25 ± 0.18 mEq/kg; Amount of urine ([1]; 100 mg/kg, control 19.4 ± 4.0): 34.0 ± 3.7 mL/kg; K/Na ([1]; 100 mg/kg, control 0.21 ± 0.08): 0.30 ± 0.10; K excreted ([1]; 100 mg/kg, control 0.55 ± 0.14): 0.14 ± 0.45 mEq/kg; Na excreted ([1]; 100 mg/kg, control 2.76 ± 0.83): 3.69 ± 0.33 mEq/kg; K/Na ([1]; control 0.18 ± 0.04): 0.19 ± 0.07
4 | CC(C)NCC(O)COc1cccc2c1OCC(CO[N+](=O)[O-])C2 (centres unmarked) [Compound Ib, 3,4-dihydro-8-[(2-hydroxy-3-isopropylamino)propoxy]-3-nitratomethyl-2H-benzopyran] | 32.6 ± 4.5 | 0.21 ± 0.08 | 0.83 ± 0.36 | 3.87 ± 0.64 | 7.83 | 5.6 | 5.7 | +~- | 6.4 | 6.2 | 6.2 | Kb (isoproterenol, bronchus; read-out: (2) pA2 (converted)): 5.13 nM
